Earlier results in patent publication US20110224120A1, “WASHING, CLEANING, POST-TREATING OR AUXILIARY WASHING AGENT CONTAINING SILVER” (Henkel AG & Co. KGaA, priority 2008, published 2011).

Settings: Kanicky et al., Langmuir 2000, 16, 172-177

- pKa value: 8.15
Structure (SMILES): CCCCCCCCCCCCCC(=O)O [myristic acid]
